Experimental data published in patent US11617796B2, “Conjugate of minoxidil and peptide” (CAREGEN CO., LTD., priority 2016, dated 2023).
Where no end group is shown, it is not given here.

Legend:
β-catenin = experiment: Translocation of β-catenin to nucleus in hair follicle dermal papilla cells (Western blotting); assay type: cell-based; conditions: 5 and 50 uM, 24 hours, same concentration; FIG. 10
Procedure: Hair follicle dermal papilla cells were placed in each well of a 6-well plate at 1×10^3 cells/well. Incubation was performed in a CO2 incubator for 24 hours. […] Protein was extracted using a protein extraction kit (extraction of each of the nuclear/cytoplasmic protein). Western blotting was carried out in the same manner as in Example 3-2 except that an anti-beta-catenin antibody, an anti-HDAC antibody, an anti-alpha tubulin antibody as primary antibodies were used.

VEGF = VEGF mRNA amount by RT-PCR in HUVECs; assay type: cell-based, human; conditions: 5 and 50 uM, 24 hours, compared with Minoxidil, FIGS. 4 to 6
Procedure: (§1) VEGF was expressed by HUVECs and TGFβ1 was expressed by hair follicle dermal papilla cells. Two cells were placed in each 6-well plate at a rate of 1×10^3 cells/well. After 24 hours of incubation in a CO2 incubator, the medium was replaced with serum-free DMEM medium. Three compounds of the present invention and Minoxidil were added to the cells at 5 uM and 50 uM concentration, respectively, and incubated for 24 hours. After incubated cells were harvested, RNA was extracted using an RNA extraction kit and RT-PCR was performed to confirm the degree of expression of VEGF and TGFβ1.

phospho-Smad1/5/8 = experiment: Translocation of phospho-Smad1/5/8 to nucleus in the presence of BMP2 (Western blotting); assay type: cell-based; conditions: in the presence of BMP2, 5 and 50 uM, compared with Minoxidil; FIGS. 12 and 13
Procedure: Hair follicle dermal papilla cells were placed in each well of a 6-well plate at 1×10^3 cells/well. Incubation was performed in a CO2 incubator for 24 hours. After replacing the medium with serum-free DMEM medium, the Minoxidil, the Minoxidil-WINT, and the WINT were added respectively to the cells at a concentration of 5 uM and 50 uM, and then incubated for 24 hours. Protein was extracted using a protein extraction kit (extraction of each of the nuclear/cytoplasmic protein). Western blotting was carried out in the same manner as in Example 3-2 except that an anti-beta-catenin antibody, an anti-HDAC antibody, an anti-alpha tubulin antibody as primary antibodies were used.
The experiment was carried out in the same manner as in Example 5, except that in the presence of BMP2, the Minoxidil-Nokkin is used instead of the Minoxidil-WINT, and an anti-P-Smad1/5/8 antibody and an anti-HDAC1 antibody were used as primary antibodies.

TGFβ1 = TGFβ1 mRNA amount by RT-PCR in hair follicle dermal papilla cells; assay type: cell-based, human; conditions: 5 and 50 uM, 24 hours, compared with Minoxidil, FIGS. 4 to 6
Procedure: as §1

Nc1cc(N2CCCCC2)nc(N)[n+]1[O-] [Minoxidil] was tested, and the “degree of translocation of β-catenin to the nucleus” value (β-catenin) was “significantly lower degree of translocation of β-catenin to the nucleus”.

“Minoxidil-Nokkin: Minoxidil chemically conjugated to Nokkin peptide of SEQ ID NO: 1 (ELIEHGGGRPAD) (also: minoxidil conjugate, attachment site not given here)” was tested, and the “expression of VEGF (mRNA)” value (VEGF) was “significantly higher than that of Minoxidil”, the “delivery of P-Smad1/5/8 into the nucleus” value (phospho-Smad1/5/8) was “reduced as compared to the treatment with the Minoxidil” and the “expression of TGFβ1 (mRNA)” value (TGFβ1) was “significantly lower than that of the Minoxidil”.
